US20110112104A1, “TRICYCLIC COMPOUNDS, A PROCESS FOR THEIR PREPARATION AND PHARMACEUTICAL COMPOSITIONS CONTAINING THEM” (LES LABORATOIRES SERVIER, priority 2008, published 2011)

These compounds were tested on caspase 3 (assay: Induction of caspase activity in vitro). Details: H146 small-cell lung carcinoma cells, compound at 10 μM, 6 hours exposure.
Assay type: cell-based, human
Experimental: This study was carried out on the following human tumour cell line: • 1 small-cell lung carcinoma, H146. This cell line is cultured in an incubator at 37° C. in the presence of 5% CO2. More specifically, the H146 cells are cultured in complete RPMI 1640 medium containing 10% foetal calf serum, 2 mM glutamine, 50 units/ml of penicillin, 50 μg/ml of streptomycin and 10 mM Hepes buffer, pH=7.4. The cells are distributed onto 6-well plates and exposed to the test compounds for 6 hours. They are then collected and lysed and the caspase activity is measured in the cell lysates. This enzymatic measurement is carried out by measuring the appearance of a fluorigenic cleavage product (Pharmacia).

Row | SMILES | caspase 3 activity in cell lysates
1 | CN(C)CC[C@H](CSc1ccccc1)Nc1ccc(S(=O)(=O)NC(=O)c2cc3c(cn2)N2CCN(Cc4ccccc4-c4ccc(Cl)cc4)CC2C3)cc1[N+](=O)[O-].Cl.Cl.Cl (stereo partly drawn) [Example 1, N-({2-[(4′-Chloro[1,1′-biphenyl]-2-yl)methyl]-1,2,3,4,10,10a-hexahydropyrido[4′,3′:4,5]pyrrolo[1,2-a]pyrazin-8-yl}carbonyl)-4-({(1R)-3-(dimethylamino)-1-[(phenylsulphanyl)methyl]propyl}amino)-3-nitro-benzenesulphonamide trihydrochloride] | 15395 RFU (Relative Fluorescence Units)
2 | CN(C)CC[C@H](CSc1ccccc1)Nc1ccc(S(=O)(=O)NC(=O)c2ccc3c(n2)CC2CN(Cc4ccccc4-c4ccc(Cl)cc4)CCN32)cc1[N+](=O)[O-].Cl.Cl (stereo partly drawn) [Example 2, N-({8-[(4′-Chloro[1,1′-biphenyl]-2-yl)methyl]-6,7,8,9,9a,10-hexahydropyrido[2′,3′:4,5]pyrrolo[1,2-a]pyrazin-2-yl}carbonyl)-4-({(1R)-3-(dimethylamino)-1-[(phenylsulphanyl)methyl]propyl}amino)-3-nitro-benzenesulphonamide dihydrochloride] | 9948 RFU (Relative Fluorescence Units)
3 | CN(C)CC[C@H](CSc1ccccc1)Nc1ccc(S(=O)(=O)NC(=O)c2cnc3c(c2)CC2CN(Cc4ccccc4-c4ccc(Cl)cc4)CCN32)cc1[N+](=O)[O-].Cl.Cl.Cl (stereo partly drawn) [Example 3, N-({7-[(4′-Chloro[1,1′-biphenyl]-2-yl)methyl]-5,5a,6,7,8,9-hexahydropyrido[3′,2′:4,5]pyrrolo[1,2-a]pyrazin-3-yl}carbonyl)-4-({(1R)-3-(dimethylamino)-1-[(phenylsulphanyl)methyl]propyl}amino)-3-nitro-benzenesulphonamide trihydrochloride] | 17776 RFU (Relative Fluorescence Units)
